Source: the supplement of paper PMC10307832

Legend:
Assay in all cases: relative viability (nuclei count vs DMSO), 5 days (fraction); higher = more cells survive
NCI-H1975 = test system: NCI-H1975
Outline: (§1)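 After 5 days of treatment, lung cancer cells in 1536-well plates were fixed and stained in a single step (final 0.05% Triton X-100, 1% formaldehyde, 1 ug/ml Hoechst) and their nuclei counted on 4× images. Treatment had been applied by pin tool the day after seeding as one drug alone or as a fixed anchor-drug dose with five library-drug doses (not always all listed) in √10 steps. Relative viability is the nuclei count of treated wells divided by that of vehicle wells, and values are medians of duplicate plates.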

H3255 = test system: H3255
Outline: as §1

NCI-H1734 = test system: NCI-H1734
Outline: as §1

NCI-H1563 = test system: NCI-H1563
Outline: as §1

ChaGo-K-1 = test system: ChaGo-K-1
Outline: as §1

NCI-H1666 = test system: NCI-H1666
Outline: as §1

NCI-H23 = test system: NCI-H23
Outline: as §1

EKVX = test system: EKVX
Outline: as §1

NCI-H596 = test system: NCI-H596
Outline: as §1

HCC-366 = test system: HCC-366
Outline: as §1

NCI-H441 = test system: NCI-H441
Outline: as §1

COR-L 105 = test system: COR-L 105
Outline: as §1

PC-3 [JPC-3] = test system: PC-3 [JPC-3]
Outline: as §1

NCI-H1755 = test system: NCI-H1755
Outline: as §1

LOU-NH91 = test system: LOU-NH91
Outline: as §1

EMC-BAC-2 = test system: EMC-BAC-2
Outline: as §1

A-427 = test system: A-427
Outline: as §1

NCI-H520 = test system: NCI-H520
Outline: as §1

NCI-H1792 = test system: NCI-H1792
Outline: as §1

SMILES: Clc1ccc(Nc2nnc(Cc3ccncc3)c3ccccc23)cc1 [Vatalanib] + CC(C)C[C@H](NC(=O)[C@H](Cc1ccccc1)NC(=O)c1cnccn1)B(O)O [Bortezomib] (partner 0.002 µM)
- relative viability (NCI-H1975; first compound 0.04 µM): 0.407
- relative viability (NCI-H1975; first compound 0.1265 µM): 0.352
- relative viability (NCI-H1975; first compound 0.4 µM): 0.422
- relative viability (NCI-H1975; first compound 1.265 µM): 0.374
- relative viability (NCI-H1975; first compound 4 µM): 0.379
- relative viability (H3255; first compound 0.04 µM): 0.627
- relative viability (H3255; first compound 0.1265 µM): 0.764
- relative viability (H3255; first compound 0.4 µM): 0.494
- relative viability (H3255; first compound 1.265 µM): 0.47
- relative viability (H3255; first compound 4 µM): 0.713
- relative viability (NCI-H1734; first compound 0.04 µM): 1.02
- relative viability (NCI-H1734; first compound 0.1265 µM): 1.04
- relative viability (NCI-H1734; first compound 0.4 µM): 1.15
- relative viability (NCI-H1734; first compound 1.265 µM): 0.827
- relative viability (NCI-H1734; first compound 4 µM): 0.893
- relative viability (NCI-H1563; first compound 0.04 µM): 0.868
- relative viability (NCI-H1563; first compound 0.1265 µM): 0.855
- relative viability (NCI-H1563; first compound 0.4 µM): 1.09
- relative viability (NCI-H1563; first compound 1.265 µM): 0.814
- relative viability (NCI-H1563; first compound 4 µM): 0.732
- relative viability (ChaGo-K-1; first compound 0.04 µM): 0.936
- relative viability (ChaGo-K-1; first compound 0.1265 µM): 0.938
- relative viability (ChaGo-K-1; first compound 1.265 µM): 0.991
- relative viability (ChaGo-K-1; first compound 4 µM): 1.03
- relative viability (NCI-H1666; first compound 0.04 µM): 0.795
- relative viability (NCI-H1666; first compound 0.1265 µM): 0.701
- relative viability (NCI-H1666; first compound 0.4 µM): 0.851
- relative viability (NCI-H1666; first compound 1.265 µM): 0.67
- relative viability (NCI-H1666; first compound 4 µM): 0.733
- relative viability (NCI-H23; first compound 0.04 µM): 0.846
- relative viability (NCI-H23; first compound 0.1265 µM): 1.03
- relative viability (NCI-H23; first compound 0.4 µM): 1.14
- relative viability (NCI-H23; first compound 1.265 µM): 0.865
- relative viability (NCI-H23; first compound 4 µM): 1.08
- relative viability (EKVX; first compound 0.04 µM): 1.1
- relative viability (EKVX; first compound 0.1265 µM): 0.647
- relative viability (EKVX; first compound 0.4 µM): 1.22
- relative viability (EKVX; first compound 1.265 µM): 0.984
- relative viability (EKVX; first compound 4 µM): 0.848
- relative viability (NCI-H596; first compound 0.04 µM): 1.2
- relative viability (NCI-H596; first compound 0.1265 µM): 1
- relative viability (NCI-H596; first compound 0.4 µM): 1.01
- relative viability (NCI-H596; first compound 1.265 µM): 1.11
- relative viability (NCI-H596; first compound 4 µM): 1.01
- relative viability (HCC-366; first compound 0.04 µM): 1.09
- relative viability (HCC-366; first compound 0.1265 µM): 0.924
- relative viability (HCC-366; first compound 0.4 µM): 1.03
- relative viability (HCC-366; first compound 1.265 µM): 1.06
- relative viability (HCC-366; first compound 4 µM): 1.05
- relative viability (NCI-H441; first compound 0.04 µM): 0.421
- relative viability (NCI-H441; first compound 0.1265 µM): 0.444
- relative viability (NCI-H441; first compound 0.4 µM): 0.52
- relative viability (NCI-H441; first compound 1.265 µM): 0.448
- relative viability (NCI-H441; first compound 4 µM): 0.448
- relative viability (COR-L 105; first compound 0.04 µM): 0.941
- relative viability (COR-L 105; first compound 0.1265 µM): 0.783
- relative viability (COR-L 105; first compound 0.4 µM): 0.931
- relative viability (COR-L 105; first compound 1.265 µM): 0.713
- relative viability (COR-L 105; first compound 4 µM): 0.651
- relative viability (PC-3 [JPC-3]; first compound 0.04 µM): 0.785
- relative viability (PC-3 [JPC-3]; first compound 0.1265 µM): 0.828
- relative viability (PC-3 [JPC-3]; first compound 0.4 µM): 0.82
- relative viability (PC-3 [JPC-3]; first compound 1.265 µM): 0.856
- relative viability (PC-3 [JPC-3]; first compound 4 µM): 0.721
- relative viability (NCI-H1755; first compound 0.04 µM): 0.938
- relative viability (NCI-H1755; first compound 0.1265 µM): 0.926
- relative viability (NCI-H1755; first compound 0.4 µM): 0.992
- relative viability (NCI-H1755; first compound 1.265 µM): 0.88
- relative viability (NCI-H1755; first compound 4 µM): 0.974
- relative viability (LOU-NH91; first compound 0.04 µM): 0.491
- relative viability (LOU-NH91; first compound 0.1265 µM): 0.43
- relative viability (LOU-NH91; first compound 0.4 µM): 0.464
- relative viability (LOU-NH91; first compound 1.265 µM): 0.493
- relative viability (LOU-NH91; first compound 4 µM): 0.468
- relative viability (EMC-BAC-2; first compound 0.04 µM): 1.04
- relative viability (EMC-BAC-2; first compound 0.1265 µM): 1.09
- relative viability (EMC-BAC-2; first compound 0.4 µM): 1.12
- relative viability (EMC-BAC-2; first compound 1.265 µM): 1.01
- relative viability (EMC-BAC-2; first compound 4 µM): 1.05
- relative viability (A-427; first compound 0.04 µM): 0.965
- relative viability (A-427; first compound 0.1265 µM): 0.926
- relative viability (A-427; first compound 0.4 µM): 0.96
- relative viability (A-427; first compound 1.265 µM): 0.941
- relative viability (A-427; first compound 4 µM): 0.997
- relative viability (NCI-H520; first compound 0.04 µM): 0.841
- relative viability (NCI-H520; first compound 0.1265 µM): 0.573
- relative viability (NCI-H520; first compound 0.4 µM): 0.677
- relative viability (NCI-H520; first compound 1.265 µM): 0.547
- relative viability (NCI-H520; first compound 4 µM): 0.702
- relative viability (NCI-H1792; first compound 0.04 µM): 0.946
- relative viability (NCI-H1792; first compound 0.1265 µM): 0.9
- relative viability (NCI-H1792; first compound 0.4 µM): 0.915
- relative viability (NCI-H1792; first compound 1.265 µM): 0.921
- relative viability (NCI-H1792; first compound 4 µM): 0.972

SMILES: CC(C)Oc1cc(Nc2nc(N[C@@H](C)c3ccc(F)cn3)ncc2Cl)n[nH]1 [AZ23] + CC(C)C[C@H](NC(=O)[C@H](Cc1ccccc1)NC(=O)c1cnccn1)B(O)O [Bortezomib] (partner 0.002 µM)
- relative viability (NCI-H1975; first compound 0.01 µM): 0.393
- relative viability (NCI-H1975; first compound 0.03162 µM): 0.372
- relative viability (NCI-H1975; first compound 0.3162 µM): 0.375
- relative viability (H3255; first compound 0.01 µM): 0.64
- relative viability (H3255; first compound 0.03162 µM): 1.06
- relative viability (H3255; first compound 0.3162 µM): 0.81
- relative viability (NCI-H1734; first compound 0.01 µM): 1.02
- relative viability (NCI-H1734; first compound 0.03162 µM): 1.37
- relative viability (NCI-H1734; first compound 0.3162 µM): 1.01
- relative viability (NCI-H1563; first compound 0.01 µM): 0.931
- relative viability (NCI-H1563; first compound 0.03162 µM): 1.01
- relative viability (NCI-H1563; first compound 0.3162 µM): 0.816
- relative viability (ChaGo-K-1; first compound 0.01 µM): 0.96
- relative viability (ChaGo-K-1; first compound 0.03162 µM): 1.22
- relative viability (ChaGo-K-1; first compound 0.3162 µM): 1.16
- relative viability (NCI-H1666; first compound 0.01 µM): 0.725
- relative viability (NCI-H1666; first compound 0.03162 µM): 0.878
- relative viability (NCI-H1666; first compound 0.3162 µM): 0.889
- relative viability (NCI-H23; first compound 0.03162 µM): 1.12
- relative viability (NCI-H23; first compound 0.3162 µM): 1.04
- relative viability (EKVX; first compound 0.01 µM): 1.52
- relative viability (EKVX; first compound 0.03162 µM): 1.26
- relative viability (EKVX; first compound 0.3162 µM): 1.01
- relative viability (NCI-H596; first compound 0.01 µM): 1.17
- relative viability (NCI-H596; first compound 0.03162 µM): 1.06
- relative viability (NCI-H596; first compound 0.3162 µM): 1.1
- relative viability (HCC-366; first compound 0.01 µM): 1.26
- relative viability (HCC-366; first compound 0.03162 µM): 1.34
- relative viability (HCC-366; first compound 0.3162 µM): 1.1
- relative viability (NCI-H441; first compound 0.01 µM): 0.833
- relative viability (NCI-H441; first compound 0.03162 µM): 1.05
- relative viability (NCI-H441; first compound 0.3162 µM): 0.678
- relative viability (COR-L 105; first compound 0.01 µM): 0.733
- relative viability (COR-L 105; first compound 0.03162 µM): 1.04
- relative viability (COR-L 105; first compound 0.3162 µM): 0.757
- relative viability (PC-3 [JPC-3]; first compound 0.01 µM): 0.893
- relative viability (PC-3 [JPC-3]; first compound 0.03162 µM): 1.01
- relative viability (PC-3 [JPC-3]; first compound 0.3162 µM): 0.887
- relative viability (NCI-H1755; first compound 0.01 µM): 1.16
- relative viability (NCI-H1755; first compound 0.03162 µM): 1.07
- relative viability (NCI-H1755; first compound 0.3162 µM): 1.03
- relative viability (LOU-NH91; first compound 0.01 µM): 0.535
- relative viability (LOU-NH91; first compound 0.03162 µM): 0.546
- relative viability (LOU-NH91; first compound 0.3162 µM): 0.519
- relative viability (EMC-BAC-2; first compound 0.01 µM): 1.2
- relative viability (EMC-BAC-2; first compound 0.03162 µM): 1.11
- relative viability (EMC-BAC-2; first compound 0.3162 µM): 1.16
- relative viability (A-427; first compound 0.01 µM): 1.07
- relative viability (A-427; first compound 0.03162 µM): 1.11
- relative viability (A-427; first compound 0.3162 µM): 0.969
- relative viability (NCI-H520; first compound 0.01 µM): 0.434
- relative viability (NCI-H520; first compound 0.03162 µM): 0.591
- relative viability (NCI-H520; first compound 0.3162 µM): 0.495
- relative viability (NCI-H1792; first compound 0.01 µM): 1.27
- relative viability (NCI-H1792; first compound 0.03162 µM): 1.12
- relative viability (NCI-H1792; first compound 0.3162 µM): 1.06
